The values below come from PMC11944037, “Investigating the Mechanism of Action of Ipomoea pes-caprae in the Treatment of Rheumatoid Arthritis Based on Serum Metabolomics and Network Pharmacology” (Marine Drugs, 2025).

Where two headings read alike, the source gives them in different places.

Series [1] is described as follows: Identification and relative content of absorbed components of IPE in plasma (UPLC-MS). In kind it is in vivo, SD rats. Particulars: oral IPE 13.5 g/kg, peak area normalization. From the text: A total of 83 male SD rats, SPF grade, six weeks old, body mass (200 ± 10 g), were purchased from Hunan SJA Laboratory Animal Co., Ltd. (Haodan Science and Technology Park, No.99 Changchong Road, Longping High-tech Park, Furong District, Changsha City, China), Animal License No. SCXK (Hunan) 2019-0004. The animal experiments were approved by the Animal Ethics Committee of Guangxi University of Chinese Medicine (Approval No. DW20220220-117). After one week of adaptive feeding, the animals were randomly divided into eight groups of 10 animals according to weight stratification: normal control group (Con), natural bovine type II collagen model group (CII), wind-dampness cold bi-syndrome model group (WCM), wind-dampness heat bi-syndrome model group (WHM), wind-dampness cold bi-syndrome + Ipomoea pes-caprae group (WCM + IPE), wind-dampness heat bi-syndrome + Ipomoea pes-caprae group (WHM + IPE), wind-dampness cold bi-syndrome + Duhuo group (WCM + DH) (Duhuo formula granules), and wind-dampness heat bi-syndrome + Fangji group (WHM + FJ) (Fangji formula granules). Another three rats were randomly selected as the normal administration group (Con + IPE), and the absorbed components in plasma were studied in vivo. The oral dose of IPE was 13.5 g/kg, and the dosing volume was 20 mL/kg. The oral doses of Duhuo formula granules and Fangji formula granules were 9.0 g/kg, with a dosing volume of 20 mL/kg for each. The blank control group and each model group were administered an equal volume of distilled water by oral gavage. The administration was performed once daily for 28 consecutive days.
Rats were fasted for 12 h before administration but not deprived of water, then weighed and administered. A total of 0.2 mL of blood was collected from the orbit at 5 min, 30 min, 45 min, 1 h, 2 h, 4 h, 6 h, 8 h, and 12 h after the end of gavage administration and placed in a centrifuge tube with a preservative anticoagulant (1.5% EDTA aqueous solution, 1.5 mL). The samples were centrifuged at 4 °C for 10 min at 4000 rpm to separate the plasma. The supernatant was transferred to a new centrifuge tube and stored in a refrigerator at −80 °C for the detection of absorbed components in plasma and pharmacokinetics. In addition, after the end of the entire experimental cycle, blood was taken from the abdominal aorta of the rat. The blood samples were kept at room temperature for 2 h, then centrifuged at 4 °C at 3000 rpm for 10 min, and the upper serum was aspirated. The samples were stored at −80 °C in a low-temperature refrigerator for TNF-α, IL-6 detection, and metabolomics detection.
Ultra-high liquid chromatograph (model: ExionLC AC, manufacturer: SCIEX Corporation, USA) and QTOF mass spectrometer (model: X500R, manufacturer: SCIEX Corporation, USA), Waters ACQUITY UPLC HSS T3 C18 column (1.8 μm, 2.1 × 100 mm) was used as the mobile phase for the separation of 0.1% formic acid aqueous solution (A)-acetonitrile (B) as a mobile phase, gradient elution (0~30 min, 5%~95% B); volume flow rate of 0.4 mL/min; injection volume: 3 μL, column temperature: 40 °C. Ion source: dual-spray TurboV, positive and negative ion scanning, TOF MS scanning range of m/z 100~1500, positive/negative ion source voltage of […], ion source temperature: 600 °C, GS1: 55 psi, GS2: 55 psi, air curtain gas pressure: 35 psi, parent ion collision energy: ±10 V, de-cluster voltage (DP): ±80 V, daughter ion collision energy (CE): ±35 V.
Expressed as mean ± standard deviation ( x¯ ± s) and processed by GraphPad Prism 8.4.3 statistical software, statistical comparisons were evaluated by one-way ANOVA, followed by the Student–Newman–Keuls post hoc test. The difference was statistically significant with p < 0.05 and p < 0.01. […]

The nature of series [2]: Pharmacokinetics of absorbed components of IPE in plasma. In kind it is in vivo, SD rats. Particulars: component of orally given IPE, n = 6; for MRT last: read-out: MRT0~t. From the text: (Haodan Science and Technology Park, No.99 Changchong Road, Longping High-tech Park, Furong District, Changsha City, China), Animal License No. SCXK (Hunan) 2019-0004. The animal experiments were approved by the Animal Ethics Committee of Guangxi University of Chinese Medicine (Approval No. DW20220220-117). After one week of adaptive feeding, the animals were randomly divided into eight groups of 10 animals according to weight stratification: normal control group (Con), natural bovine type II collagen model group (CII), wind-dampness cold bi-syndrome model group (WCM), wind-dampness heat bi-syndrome model group (WHM), wind-dampness cold bi-syndrome + Ipomoea […] group ([…]), wind-dampness heat bi-syndrome + Ipomoea […] group ([…]), wind-dampness cold bi-syndrome + Duhuo group (WCM + DH) (Duhuo formula granules), and wind-dampness heat bi-syndrome + Fangji group (WHM + FJ) (Fangji formula granules). […] The oral dose of IPE was 13.5 g/kg, and the dosing volume was 20 mL/kg. The oral doses of Duhuo formula granules and Fangji formula granules were 9.0 g/kg, with a dosing volume of 20 mL/kg for each. The blank control group and each model group were administered an equal volume of distilled water by oral gavage. […] The supernatant was transferred to a new centrifuge tube and stored in a refrigerator at -80 °C for the detection of absorbed components in plasma and pharmacokinetics. In addition, after the end of the entire experimental cycle, blood was taken from the abdominal aorta of the rat. The blood samples were kept at room temperature for 2 h, then centrifuged at 4 °C at 3000 rpm for 10 min, and the upper serum was aspirated. The samples were stored at -80 °C in a low-temperature refrigerator for TNF-α, IL-6 detection, and metabolomics detection. In order to further elaborate on the in vivo pharmacokinetic characteristics of IPE, this study selected caffeic acid, protocatechuic acid, and ferulic acid as the research objects to explore their in vivo absorption and metabolism characteristics. In addition, syringic acid was chosen as the internal standard. […] Use A as 0.1% acetic acid aqueous solution (A) acetonitrile (B) as the mobile phase, with gradient elution (0-6 min, 5-20% B; 6-10 min, 20-40% B), a volume flow of 0.4 mL/min, a column temperature of 40 °C, and an injection volume of 3 μL. Ion source: electrospray ion source (ESI), negative ion mode collection, simultaneous measurement by multiple reaction monitoring (MRM) mode.

Another series relates to RA-FLS. Also on record: method as in PMID 28463788. Particulars: by blocking phosphorylation of IκB and IκB kinases; cited from earlier work.
In another series the test system is LTB4. Also on record: method as in PMID 27826169. The conditions noted are these: cited from earlier work.
In the next series the test system is JAK/STAT pathway. The conditions noted are these: modulating CRP, RF, TNF-α, TGF-β levels; cited from earlier work.
Series [3] has as its system NF-κB and Akt/mTOR signaling pathways. Also on record: method as in PMID 32510258. Particulars: cited from earlier work.
Series [4] deals with tyrosine kinases on fibroblast-like synoviocytes (FLS). The conditions noted are these: cited from earlier work.
Where [5] appears, read: male, SD, rat, plasma, po, 13.5 g/kg, Con + IPE group.
The mark [6] stands for this setting: male, SD, rat, plasma, po, 13.5 g/kg, Con + IPE group, read-out: Tmax.
The mark [7] stands for this setting: male, SD, rat, plasma, po, 13.5 g/kg, WCM + IPE group.
Where [8] appears, read: male, SD, rat, plasma, po, 13.5 g/kg, WCM + IPE group, read-out: Tmax.
The mark [9] stands for this setting: male, SD, rat, plasma, po, 13.5 g/kg, WHM + IPE group.
Setting [10] is: male, SD, rat, plasma, po, 13.5 g/kg, WHM + IPE group, read-out: Tmax.

The AUC(0-t) is the area under the concentration-time curve up to a stated or last time point. Usually Cmax stands for the maximum level reached in the sampled fluid or tissue. Broadly, the half-life is how long it takes for the measured level to halve. In general, Tmax refers to the time at which the peak concentration occurs.

For `O=C(O)/C=C/c1ccc(O)c(O)c1` [Caffeic acid], the “Relative Content of absorbed component in plasma” value (“Relative Content” for short) in series [1] (Con + IPE group (normal rats)) amounted to 33.04%; in series [1] (WCM + IPE group), 30.2%; in series [1] (WHM + IPE group), 34.24%. The AUC(0-t) in series [2] (setting [5]) turned out to be 2080 ± 349 ng·h/mL; in series [2] (setting [7]), 1130 ± 163 ng·h/mL; in series [2] (setting [9]) it was 2300 ± 410 ng·h/mL. Further, the maximum concentration (Cmax) in series [2] (setting [5]) stood at 703 ± 190 ng/mL; in series [2] (setting [7]), 342 ± 123 ng/mL; in series [2] (setting [9]) it was 709 ± 194 ng/mL. Besides, the half-life in series [2] (setting [5]) was 271 ± 182 min; in series [2] (setting [7]), 169 ± 64.2 min; in series [2] (setting [9]) it was 229 ± 153 min. Also, the MRT last in series [2] (setting [5]) came to 4.18 ± 1.82 h; in series [2] (setting [7]) it was 3.32 ± 0.35 h; in series [2] (setting [9]), 4.53 ± 1.34 h. The Tmax was found to be 51 ± 13.2 min in series [2] (setting [6]), 37.2 ± 8.4 min in series [2] (setting [8]) and 55.8 ± 7.2 min in series [2] (setting [10]). The “IL-6 and TNF-α, inflammatory response in RA-FLS” value in the series on RA-FLS is “inhibits IL-6 and TNF-α”.

As to `O=c1ccc2ccccc2o1` [Coumarin], the “Relative Content” value in series [1] (WCM + IPE group) is reported as 1.77%.

As to `O=c1ccc2cc(O)c(O)cc2o1` [Esculetine], the results for the “Relative Content” value in series [1] (Con + IPE group (normal rats)), in series [1] (WCM + IPE group) and in series [1] (WHM + IPE group) were 0.39%, 0.5% and 0.58%, respectively. The LTB4 levels result with LTB4 is listed as “decreasing LTB4 levels”.

As to `COc1cc(/C=C/C(=O)O)ccc1O` [Ferulic acid], the “Relative Content” value in series [1] (Con + IPE group (normal rats)) is listed as 17.23%; in series [1] (WCM + IPE group), 20.09%; in series [1] (WHM + IPE group), 17.71%. Also, the Tmax came to 19.8 ± 7.2 min in series [2] (WCM + IPE group), 27 ± 6 min in series [2] (setting [6]) and 42 ± 16.2 min in series [2] (setting [10]). Further, the AUC(0-t) in series [2] (setting [5]) came out at 60.6 ± 27.3 ng·h/mL; in series [2] (setting [7]) it was 34.9 ± 22.6 ng·h/mL; in series [2] (setting [9]) it was 104 ± 41.2 ng·h/mL. Further, the maximum concentration (Cmax) in series [2] (setting [5]) turned out to be 35.8 ± 10.9 ng/mL; in series [2] (setting [7]) it was 26.1 ± 11.6 ng/mL; in series [2] (setting [9]) it was 38.8 ± 16.2 ng/mL. Also, the half-life is 90.6 ± 30.6 min in series [2] (setting [5]), 61.2 ± 27.6 min in series [2] (setting [7]) and 78.6 ± 19.2 min in series [2] (setting [9]). Also, the MRT last in series [2] (setting [5]) is 1.3 ± 0.28 h; in series [2] (setting [7]) it was 1.05 ± 0.35 h; in series [2] (setting [9]), 2.27 ± 0.42 h. For the same molecule, the “JAK/STAT pathway-mediated RA” value in the series on JAK/STAT pathway was “inhibits JAK/STAT pathway-mediated RA”.

As for `COc1cc2oc(=O)ccc2cc1O` [Isoscopoletin], the “Relative Content” value in series [1] (Con + IPE group (normal rats)) was 2.7%; in series [1] (WCM + IPE group) it was 7.8%; in series [1] (WHM + IPE group), 5%.

As for `COC(=O)/C=C/c1ccc(O)c(O)c1` [Methyl caffeate acid], the entries for the “Relative Content” value in series [1] (Con + IPE group (normal rats)), in series [1] (WCM + IPE group) and in series [1] (WHM + IPE group) were 1.57%, 2.45% and 2.02%, respectively.

As to `O=C(O)c1ccc(O)c(O)c1` [Protocatechuic acid], the figures for the “Relative Content” value in series [1] (Con + IPE group (normal rats)), in series [1] (WCM + IPE group) and in series [1] (WHM + IPE group) were 1.04%, 1.14% and 0.84%, respectively. Moreover, the AUC(0-t) in series [2] (setting [5]) was 504 ± 177 ng·h/mL; in series [2] (setting [7]) it was 194 ± 100 ng·h/mL; in series [2] (setting [9]), 307 ± 98.3 ng·h/mL. Besides, the Cmax in series [2] (setting [5]) stood at 269 ± 90.2 ng/mL; in series [2] (setting [7]), 121 ± 77.4 ng/mL; in series [2] (setting [9]), 145 ± 53.2 ng/mL. Further, the figures for the half-life in series [2] (setting [5]), in series [2] (setting [7]) and in series [2] (setting [9]) were 116 ± 60.6 min, 87.6 ± 19.2 min and 75 ± 21.6 min, respectively. Also, the figures for the MRT last in series [2] (setting [5]), in series [2] (setting [7]) and in series [2] (setting [9]) were 1.9 ± 0.42 h, 1.59 ± 0.38 h and 1.83 ± 0.24 h, respectively. The Tmax in series [2] (setting [6]) was 39.6 ± 15 min; in series [2] (setting [8]) it was 24.6 ± 7.2 min; in series [2] (setting [10]) it was 37.2 ± 8.4 min. Moreover, in series [3], the “secretion of MMP-3, MMP-13, TNF-α, IL-1β, and IL-6” value is recorded as “inhibits the secretion”.

As for `O=Cc1ccc(O)c(O)c1` [Protocatechuic aldehyde], in series [1] (WCM + IPE group), the “Relative Content” value is reported as 1.68%.

As to `COc1cc2ccc(=O)oc2cc1O` [Scopoletin], the results for the “Relative Content” value in series [1] (Con + IPE group (normal rats)), in series [1] (WCM + IPE group) and in series [1] (WHM + IPE group) were 5.83%, 4.71% and 5.56%, respectively. Further, the “NF-κB signaling in fibroblast-like synoviocytes” value in series [4] was “block NF-κB signaling”.

For the molecule `O=C(O)c1ccc(O)cc1` [p-Hydroxybenzoic acid], the entries for the “Relative Content” value in series [1] (Con + IPE group (normal rats)), in series [1] (WCM + IPE group) and in series [1] (WHM + IPE group) were 38.2%, 29.65% and 34.04%, respectively.
